Measurements published in ChEMBL document CHEMBL5696442, “Discovery of type II inhibitors of TGFβ-activated kinase 1 (TAK1) and mitogen-activated protein kinase kinase kinase kinase 2 (MAP4K2)” (J Med Chem, 2015).
Active and inactive are the calls of the source. The calls are words filed in the database; no cut-off is given here.

Tests used:
[1] = biological target: T1, Acylglycerol kinase, mitochondrial (Homo sapiens) (UniProt Q53H12); assay: Inhibition of AGK ATP labeling site in human Huh-7 cell lysate at 1 uM by KiNativ Profiling analysis relative to control; format: subcellular
T1 sequence (whole entry): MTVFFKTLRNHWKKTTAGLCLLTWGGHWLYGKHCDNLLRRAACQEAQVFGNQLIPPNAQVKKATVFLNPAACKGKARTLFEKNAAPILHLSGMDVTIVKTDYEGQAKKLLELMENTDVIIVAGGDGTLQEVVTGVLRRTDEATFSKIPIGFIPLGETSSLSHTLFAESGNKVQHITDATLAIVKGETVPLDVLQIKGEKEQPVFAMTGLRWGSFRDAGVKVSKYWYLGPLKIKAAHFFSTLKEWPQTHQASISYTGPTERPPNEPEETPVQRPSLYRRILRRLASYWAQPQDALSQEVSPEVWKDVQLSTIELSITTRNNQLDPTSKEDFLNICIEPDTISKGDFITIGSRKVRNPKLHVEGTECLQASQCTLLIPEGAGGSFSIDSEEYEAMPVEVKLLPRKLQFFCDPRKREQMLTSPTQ

[2] = biological target: T2, Aurora kinase C (Homo sapiens) (UniProt Q9UQB9); assay: Inhibition of AurC ATP labeling site in human Huh-7 cell lysate at 1 uM by KiNativ Profiling analysis relative to control; format: subcellular
T2 sequence (whole entry): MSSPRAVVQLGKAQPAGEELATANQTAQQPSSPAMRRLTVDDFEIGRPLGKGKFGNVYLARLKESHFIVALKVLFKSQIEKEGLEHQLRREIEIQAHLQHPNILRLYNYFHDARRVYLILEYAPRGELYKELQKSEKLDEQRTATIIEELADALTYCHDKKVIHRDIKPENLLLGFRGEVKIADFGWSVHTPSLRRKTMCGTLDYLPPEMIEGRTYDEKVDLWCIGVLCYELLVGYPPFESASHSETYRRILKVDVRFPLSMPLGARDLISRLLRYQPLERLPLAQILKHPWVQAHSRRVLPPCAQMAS

[3] = biological target: Serine/threonine-protein kinase Nek3 (Homo sapiens) (UniProt P51956); assay: Inhibition of NEK3 ACT labeling site in human Huh-7 cell lysate at 1 uM by KiNativ Profiling analysis relative to control; format: subcellular
Serine/threonine-protein kinase Nek3 (Homo sapiens), sequence (P51956 whole entry): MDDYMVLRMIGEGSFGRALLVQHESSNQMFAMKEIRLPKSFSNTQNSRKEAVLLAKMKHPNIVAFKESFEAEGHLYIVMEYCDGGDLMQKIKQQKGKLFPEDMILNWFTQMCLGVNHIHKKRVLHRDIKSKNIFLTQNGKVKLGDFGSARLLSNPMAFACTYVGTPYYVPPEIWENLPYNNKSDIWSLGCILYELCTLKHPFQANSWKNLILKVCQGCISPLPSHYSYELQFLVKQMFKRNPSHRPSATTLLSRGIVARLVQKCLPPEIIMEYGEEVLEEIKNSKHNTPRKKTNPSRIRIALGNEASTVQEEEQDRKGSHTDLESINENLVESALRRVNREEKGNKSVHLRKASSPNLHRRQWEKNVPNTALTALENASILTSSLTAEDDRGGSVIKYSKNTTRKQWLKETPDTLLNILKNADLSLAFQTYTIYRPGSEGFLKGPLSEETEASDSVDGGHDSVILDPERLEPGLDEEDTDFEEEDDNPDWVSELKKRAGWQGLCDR

[4] = biological target: Maternal embryonic leucine zipper kinase (Homo sapiens) (UniProt Q14680); assay: Inhibition of MELK (unknown origin) at 10 uM by Ambit Kinomescan binding assay
Maternal embryonic leucine zipper kinase (Homo sapiens), sequence (Q14680 whole entry, looked up): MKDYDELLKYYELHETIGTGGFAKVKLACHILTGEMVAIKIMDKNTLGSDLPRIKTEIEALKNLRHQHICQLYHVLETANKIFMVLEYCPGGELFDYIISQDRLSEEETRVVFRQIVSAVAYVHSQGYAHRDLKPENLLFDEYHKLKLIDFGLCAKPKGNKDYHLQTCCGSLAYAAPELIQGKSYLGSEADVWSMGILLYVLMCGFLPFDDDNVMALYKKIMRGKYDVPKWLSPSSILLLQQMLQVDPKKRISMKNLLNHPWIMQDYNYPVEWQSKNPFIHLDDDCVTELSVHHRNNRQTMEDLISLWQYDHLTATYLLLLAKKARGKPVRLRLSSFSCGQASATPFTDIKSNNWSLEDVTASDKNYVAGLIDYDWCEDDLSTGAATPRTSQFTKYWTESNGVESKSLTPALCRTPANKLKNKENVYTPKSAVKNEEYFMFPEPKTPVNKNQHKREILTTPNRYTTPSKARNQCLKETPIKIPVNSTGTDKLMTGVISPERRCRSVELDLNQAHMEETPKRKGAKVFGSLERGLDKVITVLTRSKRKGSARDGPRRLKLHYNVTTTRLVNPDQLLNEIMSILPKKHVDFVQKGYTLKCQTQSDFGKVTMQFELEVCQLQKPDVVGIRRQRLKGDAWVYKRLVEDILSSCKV

[5] = biological target: T3, Mitogen-activated protein kinase kinase kinase kinase 2 (Homo sapiens) (UniProt Q12851); assay: Inhibition of MAP4K2 (GCK) Lys1 labeling site in human A-375 cells at 0.5 uM by KiNativ Profiling analysis relative to control; format: cell-based
T3 sequence (whole entry): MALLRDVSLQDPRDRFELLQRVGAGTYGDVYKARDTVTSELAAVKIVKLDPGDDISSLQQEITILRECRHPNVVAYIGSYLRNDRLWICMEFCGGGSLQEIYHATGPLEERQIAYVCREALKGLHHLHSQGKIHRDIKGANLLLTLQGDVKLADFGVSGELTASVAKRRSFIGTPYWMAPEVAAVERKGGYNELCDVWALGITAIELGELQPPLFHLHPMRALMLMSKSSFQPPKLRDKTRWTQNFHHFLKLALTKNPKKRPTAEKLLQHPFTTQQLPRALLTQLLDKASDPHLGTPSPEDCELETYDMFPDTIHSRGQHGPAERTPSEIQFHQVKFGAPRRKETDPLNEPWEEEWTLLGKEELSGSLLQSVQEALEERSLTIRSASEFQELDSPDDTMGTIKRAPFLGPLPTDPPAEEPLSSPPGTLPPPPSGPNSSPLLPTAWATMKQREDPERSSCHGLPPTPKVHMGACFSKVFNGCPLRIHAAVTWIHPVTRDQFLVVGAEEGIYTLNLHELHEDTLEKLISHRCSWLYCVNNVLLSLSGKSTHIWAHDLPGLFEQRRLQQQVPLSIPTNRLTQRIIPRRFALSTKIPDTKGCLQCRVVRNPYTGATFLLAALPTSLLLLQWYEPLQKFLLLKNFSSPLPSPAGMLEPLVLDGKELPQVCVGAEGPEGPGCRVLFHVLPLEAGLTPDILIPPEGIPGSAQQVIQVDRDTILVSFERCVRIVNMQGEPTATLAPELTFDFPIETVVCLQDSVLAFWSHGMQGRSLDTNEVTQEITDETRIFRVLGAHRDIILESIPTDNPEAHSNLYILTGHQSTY

[6] = biological target: TRAF2 and NCK-interacting protein kinase (Homo sapiens) (UniProt Q9UKE5); assay: Inhibition of ZC2 Lys2 labeling site in human A-375 cells at 5 uM by KiNativ Profiling analysis relative to control; format: cell-based
TRAF2 and NCK-interacting protein kinase (Homo sapiens), sequence (Q9UKE5 whole entry, looked up): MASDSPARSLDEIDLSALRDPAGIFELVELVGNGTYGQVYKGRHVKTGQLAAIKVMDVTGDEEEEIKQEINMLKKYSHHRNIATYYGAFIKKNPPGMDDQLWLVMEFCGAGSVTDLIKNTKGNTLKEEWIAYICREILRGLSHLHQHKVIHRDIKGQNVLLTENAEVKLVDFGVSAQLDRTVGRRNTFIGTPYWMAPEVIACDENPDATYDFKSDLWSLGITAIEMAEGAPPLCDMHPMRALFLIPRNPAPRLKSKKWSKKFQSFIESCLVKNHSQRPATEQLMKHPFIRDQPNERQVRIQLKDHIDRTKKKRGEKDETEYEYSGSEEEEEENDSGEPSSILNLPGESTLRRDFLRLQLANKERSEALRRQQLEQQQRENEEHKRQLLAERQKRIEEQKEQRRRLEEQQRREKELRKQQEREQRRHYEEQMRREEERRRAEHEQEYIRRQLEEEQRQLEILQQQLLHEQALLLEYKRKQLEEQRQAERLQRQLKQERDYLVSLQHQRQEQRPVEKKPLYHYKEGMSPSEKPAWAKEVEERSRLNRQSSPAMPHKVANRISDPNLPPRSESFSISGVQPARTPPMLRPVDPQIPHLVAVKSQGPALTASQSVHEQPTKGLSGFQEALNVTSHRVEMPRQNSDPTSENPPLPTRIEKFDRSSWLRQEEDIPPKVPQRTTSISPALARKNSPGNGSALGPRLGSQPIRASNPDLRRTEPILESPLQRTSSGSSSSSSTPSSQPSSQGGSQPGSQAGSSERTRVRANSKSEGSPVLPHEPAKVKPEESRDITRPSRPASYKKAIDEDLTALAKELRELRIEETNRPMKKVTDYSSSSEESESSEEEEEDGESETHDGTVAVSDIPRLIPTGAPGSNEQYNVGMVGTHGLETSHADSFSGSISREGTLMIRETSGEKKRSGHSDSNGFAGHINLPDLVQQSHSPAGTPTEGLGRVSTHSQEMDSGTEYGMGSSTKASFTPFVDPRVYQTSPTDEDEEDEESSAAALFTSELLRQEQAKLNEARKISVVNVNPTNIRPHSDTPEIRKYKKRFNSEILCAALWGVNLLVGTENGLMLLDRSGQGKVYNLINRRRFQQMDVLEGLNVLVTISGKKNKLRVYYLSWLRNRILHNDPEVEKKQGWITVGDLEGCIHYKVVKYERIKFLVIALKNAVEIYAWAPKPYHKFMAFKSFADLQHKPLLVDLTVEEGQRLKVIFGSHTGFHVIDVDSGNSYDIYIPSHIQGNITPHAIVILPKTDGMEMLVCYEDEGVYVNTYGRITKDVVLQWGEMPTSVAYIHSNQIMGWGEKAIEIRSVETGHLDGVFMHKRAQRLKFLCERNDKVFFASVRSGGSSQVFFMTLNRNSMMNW

[7] = biological target: MAP/microtubule affinity-regulating kinase 3 (Homo sapiens) (UniProt P27448); assay: Inhibition of MARK3 K1 labeling site in human Huh-7 cells at 1 uM by KiNativ Profiling analysis relative to control; format: cell-based
MAP/microtubule affinity-regulating kinase 3 (Homo sapiens), sequence (P27448 whole entry, looked up): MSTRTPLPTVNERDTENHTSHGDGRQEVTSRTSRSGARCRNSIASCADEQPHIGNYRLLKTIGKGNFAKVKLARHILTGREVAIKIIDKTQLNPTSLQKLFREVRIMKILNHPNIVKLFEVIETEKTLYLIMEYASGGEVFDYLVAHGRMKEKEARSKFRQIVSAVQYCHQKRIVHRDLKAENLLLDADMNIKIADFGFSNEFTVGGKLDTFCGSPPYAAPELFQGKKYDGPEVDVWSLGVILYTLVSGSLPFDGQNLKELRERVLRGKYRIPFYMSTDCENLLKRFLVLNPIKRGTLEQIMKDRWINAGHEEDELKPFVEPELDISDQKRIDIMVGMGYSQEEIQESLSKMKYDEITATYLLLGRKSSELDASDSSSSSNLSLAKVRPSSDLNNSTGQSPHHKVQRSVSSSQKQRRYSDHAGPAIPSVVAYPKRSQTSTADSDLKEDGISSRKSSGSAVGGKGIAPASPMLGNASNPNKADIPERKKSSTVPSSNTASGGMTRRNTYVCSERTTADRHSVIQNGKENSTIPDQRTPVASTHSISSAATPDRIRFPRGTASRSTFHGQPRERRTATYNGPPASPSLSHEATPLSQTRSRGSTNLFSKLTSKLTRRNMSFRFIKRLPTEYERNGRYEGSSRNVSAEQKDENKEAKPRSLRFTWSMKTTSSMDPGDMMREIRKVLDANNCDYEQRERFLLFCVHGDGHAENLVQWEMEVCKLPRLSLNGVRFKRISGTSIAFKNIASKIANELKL

[8] = biological target: T4, Serine/threonine-protein kinase Chk1 (Homo sapiens) (UniProt O14757); assay: Inhibition of CHK1 Lys2 labeling site harbouring DIKPENLLLDERDNLK in human A-375 cells at 0.5 uM by KiNativ Profiling analysis relative to control; format: cell-based
T4 sequence (whole entry): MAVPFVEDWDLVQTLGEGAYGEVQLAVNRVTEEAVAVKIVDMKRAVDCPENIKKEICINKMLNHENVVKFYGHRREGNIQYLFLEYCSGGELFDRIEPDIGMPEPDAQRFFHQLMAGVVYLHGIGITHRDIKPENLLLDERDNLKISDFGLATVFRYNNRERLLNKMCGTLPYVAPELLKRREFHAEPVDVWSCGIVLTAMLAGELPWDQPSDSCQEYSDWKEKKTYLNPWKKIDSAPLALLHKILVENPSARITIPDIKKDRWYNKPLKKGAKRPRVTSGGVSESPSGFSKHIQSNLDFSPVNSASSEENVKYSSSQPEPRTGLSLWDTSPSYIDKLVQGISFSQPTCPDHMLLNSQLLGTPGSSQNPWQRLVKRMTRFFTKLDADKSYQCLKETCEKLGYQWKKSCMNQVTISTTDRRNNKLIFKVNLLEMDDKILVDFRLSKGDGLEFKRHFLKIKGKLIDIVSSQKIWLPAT

[9] = biological target: Rho-associated protein kinase 1 (Homo sapiens) (UniProt Q13464); assay: Inhibition of ROCK1 in human Huh-7 cells at 1 uM by KiNativ Profiling analysis relative to control; format: cell-based
[10] = biological target: Serine/threonine-protein kinase 10 (Homo sapiens) (UniProt O94804); assay: Inhibition of LOK (unknown origin) at 1 uM by Ambit Kinomescan binding assay relative to control; values are per cent of control
Serine/threonine-protein kinase 10 (Homo sapiens), sequence (O94804 whole entry, looked up): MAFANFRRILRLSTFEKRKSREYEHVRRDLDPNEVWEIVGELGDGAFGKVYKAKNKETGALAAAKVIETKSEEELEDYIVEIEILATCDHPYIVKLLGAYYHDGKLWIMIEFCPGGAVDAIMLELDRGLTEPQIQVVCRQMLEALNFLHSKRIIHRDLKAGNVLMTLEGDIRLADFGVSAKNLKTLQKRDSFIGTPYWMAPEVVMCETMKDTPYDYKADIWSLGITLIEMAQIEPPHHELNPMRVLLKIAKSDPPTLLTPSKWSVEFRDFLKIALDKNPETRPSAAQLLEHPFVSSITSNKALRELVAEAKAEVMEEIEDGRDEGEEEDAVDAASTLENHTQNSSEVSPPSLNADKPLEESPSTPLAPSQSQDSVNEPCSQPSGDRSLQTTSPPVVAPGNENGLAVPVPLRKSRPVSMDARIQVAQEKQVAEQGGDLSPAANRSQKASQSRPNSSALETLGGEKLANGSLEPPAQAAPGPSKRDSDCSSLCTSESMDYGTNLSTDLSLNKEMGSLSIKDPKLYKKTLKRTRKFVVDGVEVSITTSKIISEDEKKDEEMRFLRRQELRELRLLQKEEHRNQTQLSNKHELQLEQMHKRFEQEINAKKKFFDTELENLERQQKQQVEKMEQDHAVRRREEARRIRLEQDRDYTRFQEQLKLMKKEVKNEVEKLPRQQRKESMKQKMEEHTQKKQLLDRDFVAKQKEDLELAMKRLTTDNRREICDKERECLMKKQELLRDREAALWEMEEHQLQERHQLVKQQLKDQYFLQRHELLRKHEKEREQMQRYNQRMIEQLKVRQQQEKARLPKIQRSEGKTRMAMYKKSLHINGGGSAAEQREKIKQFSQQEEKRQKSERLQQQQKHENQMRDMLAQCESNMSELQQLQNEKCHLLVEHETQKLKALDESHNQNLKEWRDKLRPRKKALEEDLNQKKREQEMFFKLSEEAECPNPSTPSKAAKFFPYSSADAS

[11] = biological target: Serine/threonine-protein kinase 4 (Homo sapiens) (UniProt Q13043); assay: Inhibition of MST1 Lys1 labeling site harbouring AIHKETGQIVAIKQVPVESDLQEIIK in human A-375 cells at 0.5 uM by KiNativ Profiling analysis relative to control
Serine/threonine-protein kinase 4 (Homo sapiens), sequence (Q13043 whole entry, looked up): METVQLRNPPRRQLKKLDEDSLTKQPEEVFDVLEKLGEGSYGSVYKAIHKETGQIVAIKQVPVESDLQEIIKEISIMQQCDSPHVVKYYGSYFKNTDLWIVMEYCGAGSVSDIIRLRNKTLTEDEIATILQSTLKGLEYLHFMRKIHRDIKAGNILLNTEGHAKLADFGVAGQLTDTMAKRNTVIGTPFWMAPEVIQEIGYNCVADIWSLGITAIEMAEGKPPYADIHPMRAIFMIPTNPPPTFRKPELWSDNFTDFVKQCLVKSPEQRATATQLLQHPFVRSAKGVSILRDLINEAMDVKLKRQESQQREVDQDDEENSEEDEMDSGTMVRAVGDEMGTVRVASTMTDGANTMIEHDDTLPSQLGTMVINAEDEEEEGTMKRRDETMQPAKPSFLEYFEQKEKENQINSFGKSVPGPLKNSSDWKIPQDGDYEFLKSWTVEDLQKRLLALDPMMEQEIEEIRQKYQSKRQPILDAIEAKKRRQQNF

CNc1cc(Oc2cc(C(=O)Nc3cc(N4CCN(C)CC4)cc(C(F)(F)F)c3)ccc2C)ncn1
inhibition [1]: 3.4% | inhibition [2]: 2.5% | inhibition [3]: 9.3%

CCN1CCN(Cc2ccc(NC(=O)c3ccc(C)c(Oc4ccnc5[nH]ccc45)c3)cc2C(F)(F)F)CC1
inhibition [4]: inactive | inhibition [5]: > 99.5% | inhibition [6]: 92.7% | inhibition [7]: 5% | inhibition [8]: 41.1% | inhibition [9]: -5.5%

CCN1CCN(Cc2ccc(NC(=O)c3ccc(C)c(/C=C/c4cnc5[nH]ccc5c4OC)c3)cc2C(F)(F)F)CC1
percent of control [10]: 0% | inhibition [11]: -4.7%
